Source: patent publication US12534501B2, “Targeting deregulated Wnt signaling in cancer using stabilized alpha-helices of BCL-9” (Dana-Farber Cancer Institute, Inc., priority 2011, dated 2026)
Numbered stars: 1 amine (or outer) side, 2 acyl side, 3 side chain; on linkers, the order of the positions; unused ones are H or OH. Bridge positions count the residues as written; N and C are the ends. Square brackets hold non-standard residues; d marks the D form. Peptide text beside a SMILES is read from it. ξ: configuration not given here. ξαMeNle(6-ylidene) = CC(CCCC=[*:3])(N[*:1])C(=O)[*:2]; Nle = CCCC[C@H](N)C(=O)O

Tests used:
Assay type in all cases: cell-based
[1] = test system: TCF regulatory sequences (7×TdG) in Colo320 cells; experiment: dGFP reporter under TCF regulatory sequences (7×TdG)
Text: A lentiviral reporter vector containing seven TCF/LEF-1 binding motifs and a minimal promoter driving destabilized GFP expression (7×TdG) was derived from the lentiviral vector TOP-dGFP, which contains three TCF/LEF-1 binding motifs (Sukhdeo, K. et al. Proc Natl Acad Sci USA 104, 7516-21 (2007)). Two synthetic complementary oligonucleotides (IDT-DNA) with four TCF/LEF-1 binding motifs (GATCAAAGG) were designed to generate compatible overhanging ends for annealing to an Xba1 restriction site. The oligonucleotides were annealed by heating to 95° C. and slow cooling to room temperature, followed by ligating into the Xba1-linearized TOP-dGFP vector, yielding 7×TdG. For construction of the control vector carrying seven FOP-sites (7×FdG), the 7×TOP cassette was removed from the 7×TdG vector by restriction digesting with Xma1 and Age1. A synthetic cassette carrying seven FOP sites (GGCCAAAGG) but otherwise identical to the removed 7×TOP cassette was inserted, yielding 7×FdG. BCL9 shRNA and control shRNA lentiviral vectors were generated as reported (Sampietro, J. et al. Mol Cell 24, 293-300 (2006)). See results in FIG. 10, FIG. 11B. […]
Colo320 cells were subjected to infection for 72 h with either 7×TdG or 7×FdG lentivirus, and the transduced and control non-transduced cells were trypsinized, washed, and then analyzed on a FACSaria flow sorter. […]

[2] = test system: Wnt-dependent reporter activity (TOP-FLASH) in Colo320 cells; experiment: Wnt-specific TCF reporter gene assay (TOP-FLASH dual luciferase); details: Colo320, normalized to Renilla
Method: Luciferase activity was measured using the Dual Luciferase Reporter Assay System (Promega) as previously described (Sukhdeo, K. et al. Proc Natl Acad Sci USA 104, 7516-21 (2007)). To measure Wnt or NFκB reporter activity, Colo320 cells were transfected with TOP-FLASH, FOP-FLASH plasmid (Millipore Corporation) or NFκB luciferase reporter (Stratagene), along with an internal Renilla control plasmid (hRL-null). Transfection was accomplished using FuGENE (Roche) according to the manufacturer's protocol. The results were normalized to control Renilla activity. The reported data represent the average of three independent transfection experiments performed in triplicate. See results in FIG. 9, FIG. 10.

Colo320 cells = experiment: Cellular invasion assay, Matrigel Boyden chambers; details: 5 μM
Method: Angiogenesis was evaluated as previously described (Mani, M. et al. Cancer Res 69, 7577-86 (2009)) using an in vitro angiogenesis assay kit (Millipore). For capillary tube formation analysis, HUVEC were cultured on polymerized matrix gel and exposed to supernatant media collected from Colo320 or MM1S cells treated with vehicle (0.5% DMSO), SAH-BCL9B peptides (5 μM) for 24 h. The number of capillary tubes formed after 5 h treatment at 37° C. was determined by counting 5 randomly selected fields at 40× magnification, according to manufacture's instructions. HUVEC cultured in VEGF media and VEGF-free media were used as positive and negative controls, respectively. Cellular invasion assays were performed using Matrigel Boyden chambers (BD Biosciences) as described (Mani, M. et al. Cancer Res 69, 7577-86 (2009)). The reported data represent the average of three independent experiments performed in triplicate. See results in FIG. 3H-FIG. 3I.

| Molecule | dGFP expression [1] | reduction of Wnt-specific TCF reporter activity [2] | migration through Matrigel Boyden chambers (Colo320 cells) |
| --- | --- | --- | --- |
| CCCC[C@H](NC(=O)[C@H](CCCNC(=N)N)NC(=O)[C@H](CCC(N)=O)NC(=O)[C@@H](NC(=O)C1(C)CCCC=CCCCC(C)(NC(=O)[C@H](CC(C)C)NC(=O)[C@H](CO)NC(=O)[C@H](CCCNC(=N)N)NC(=O)[C@H](CCC(=O)O)NC(=O)[C@H](CCCNC(=N)N)NC(=O)[C@H](Cc2c[nH]cn2)NC(=O)[C@H](CCC(=O)O)NC(=O)[C@H](CC(C)C)NC(=O)[C@H](CCC(N)=O)NC(=O)[C@H](CCC(=O)O)NC(=O)[C@H](CCC(N)=O)NC(=O)[C@H](CO)NC(=O)[C@H](CC(C)C)NC(C)=O)C(=O)N[C@@H]([C@@H](C)O)C(=O)N[C@@H](CC(C)C)C(=O)N[C@@H](CCCNC(=N)N)C(=O)N1)[C@@H](C)CC)C(=O)N[C@@H](CC(C)C)C(=O)N[C@@H](Cc1ccccc1)C(N)=O (stereo partly drawn) [SAH-BCL9B] (Ac-LSQEQLEHRERSL[ξαMeNle(6-ylidene)]TLR[ξαMeNle(6-ylidene)]IQR[Nle]LF-NH2; staple 14-18) | dose-responsively blocked dGFP expression | ~50% | blocked the migration |
| SAH-BCL9B(R359E): SEQ ID NO: 7: LSQEQLEHEERSLXTLRXIQRBLF; reverse polarity point mutant, negative control of SAH-BCL9B | little to no effect | no effect | no effect |
